From patent US7402580B2, “Fused pyridazine derivative compounds and drugs containing these compounds as the active ingredient” (Ono Pharmaceutical Co., Ltd., priority 2002, dated 2008) come the findings set out here.

For this test, the target named is T1, PARP (TREVIGEN) (Homo sapiens, UniProt P09874).
T1 construct: purchased TREVIGEN
T1 sequence (P09874 whole entry): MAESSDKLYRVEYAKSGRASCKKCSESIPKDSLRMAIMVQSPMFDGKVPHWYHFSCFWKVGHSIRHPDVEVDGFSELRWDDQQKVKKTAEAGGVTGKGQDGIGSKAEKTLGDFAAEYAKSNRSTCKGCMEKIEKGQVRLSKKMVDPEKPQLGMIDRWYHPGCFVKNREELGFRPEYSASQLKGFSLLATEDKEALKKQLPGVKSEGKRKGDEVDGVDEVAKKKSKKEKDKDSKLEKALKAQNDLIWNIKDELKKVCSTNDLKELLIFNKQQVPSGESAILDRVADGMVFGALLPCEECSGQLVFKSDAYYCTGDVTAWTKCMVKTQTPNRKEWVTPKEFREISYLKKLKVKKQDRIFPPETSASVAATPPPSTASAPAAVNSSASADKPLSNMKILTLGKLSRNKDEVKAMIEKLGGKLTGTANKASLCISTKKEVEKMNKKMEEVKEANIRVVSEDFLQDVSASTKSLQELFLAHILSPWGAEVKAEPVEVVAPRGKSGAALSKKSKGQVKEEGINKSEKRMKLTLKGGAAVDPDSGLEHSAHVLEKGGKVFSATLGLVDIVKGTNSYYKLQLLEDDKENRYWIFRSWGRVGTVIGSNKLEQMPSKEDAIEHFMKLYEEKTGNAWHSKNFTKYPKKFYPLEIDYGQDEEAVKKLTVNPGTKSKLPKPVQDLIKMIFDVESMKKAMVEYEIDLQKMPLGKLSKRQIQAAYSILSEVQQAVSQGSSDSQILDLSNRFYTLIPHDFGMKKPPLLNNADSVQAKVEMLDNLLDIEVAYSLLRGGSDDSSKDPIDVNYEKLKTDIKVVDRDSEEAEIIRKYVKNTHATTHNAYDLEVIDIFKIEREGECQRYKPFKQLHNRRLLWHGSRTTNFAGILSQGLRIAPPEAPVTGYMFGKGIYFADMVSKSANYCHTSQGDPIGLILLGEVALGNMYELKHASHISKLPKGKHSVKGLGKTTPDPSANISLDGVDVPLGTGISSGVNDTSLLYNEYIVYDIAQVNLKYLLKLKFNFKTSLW
Put plainly: Enzyme assay in vitro (PARP inhibitory activity, 3H-NAD incorporation). Format: biochemical. The note with it: 50% inhibitory concentration, control (distilled water) = 100%; reaction 10 minutes at room temperature. As for the experimental part: The below procedure was carried out with 96 well plate at room temperature. In a final volume of […], the reaction mixture contained each 10 μL of 500 mM Tris/HCl (pH 8.0, WAKO), 100 mM MgCl2, 50 mM dithiothreitol (sigma), 1 mg/mL activated DNA and 1 mM NAD (containing ^3H-NAD). The 10 μL of test compound was added to the reaction mixture and the reaction was started by addition of 10 μL of 0.1 U/μL PARP (TREVIGEN). The reaction was terminated at 10 minutes by addition of 100 μL of 20% trichloroacetic acid. Poly(ADP-ribose), which is the reaction product, was collected on a glass fiber filter (GF/C, PACKARD). The radioactivity was measured by topcount (PACKARD). Inhibitory activity of the compound was represented by 50% inhibitory concentration calculated as 100% of control (distilled water).
As for `Nc1cc(N)cc(C2=NNC(=O)C3CSCCN23)c1` (stereo not drawn) [6(9), 4-(3,5-diaminophenyl)-6,7,9,9a-tetrahydro[1,4]thiazino[4,3-d][1,2,4]triazin-1(2H)-one], the IC50 was 0.61 µM. This counts as sub-micromolar.

`Nc1cccc(-c2n[nH]c(=O)c3c2NCCC3)c1` [11(4), 8-(3-aminophenyl)-2,3,4,6-tetrahydropyrido[2,3-d]pyridazin-5(1H)-one] returned a 50% inhibitory concentration (IC50) of 0.1 µM. This IC50 lies about 6.1-fold lower than the previous one.

Molecule `NCCNC(=O)Cc1n[nH]c(=O)c2c1CCCC2` [30(4), 4-(N-(2-aminoethyl)carbamoylmethyl)-5,6,7,8-tetrahydrophthalazin-1(2H)-one] showed an IC50 of 0.29 µM.
